Read-outs that look alike come from different tables or passages of the source.
Assays:
[1] = Adsorption of edaravone to catheter in vitro (recovery after wash-in); assay type: physicochemical; details: regardless of the material of the catheter
Procedure: In administration using a catheter, catheters of various materials are used in medical facilities. Thus, whether administration is feasible with a catheter of any material was investigated by evaluating adsorption properties of catheters. That is, the edaravone oral formulation (#3) was passed through a catheter, and then the percentage of edaravone collected by washing in with water was evaluated.
Specifically, the edaravone oral formulation was loaded into a syringe for catheter administration to give an edaravone amount of 105 mg, and the edaravone oral formulation was passed from the syringe to each of the catheters. Water at a predetermined temperature was then injected into the catheter to wash in the edaravone oral formulation. The edaravone oral formulation that passed through the catheter and the wash-in liquid were collected and mixed, and an amount of edaravone contained in the mixed liquid was measured. The edaravone oral formulation was washed in under any of the following conditions: with 10 ml of water three times, with 30 ml of water at 25° C. or 40° C. once, or with 50 mL of water at 25° C. or 40° C. once. Three measurements were made for each catheter, and the mean and SD of recovery % were calculated.

[2] = system: transporters P-gp and BCRP expressed in Caco-2 cells; experiment: Caco-2 transcellular transport study, efflux ratio with and without P-gp and BCRP inhibitors; assay type: in vitro ADME; details: Caco-2 cells
Procedure: (§1) Cell membrane permeability is known to be constant regardless of the concentration of the substance when no transporter is involved. The control compounds, propranolol and mannitol, are not substrates for transporters P-gp and BCRP expressed in Caco-2 cells, and thus the values of the permeability coefficient are not considered to change depending on the concentrations used in the test. Thus, further, the following study was conducted to confirm that edaravone is not a substrate for transporters P-gp and BCRP as well.
(§2) That is, Caco-2 cells were seeded on a 96-well plate, cultured at 37° C. for 10 to 11 days in a CO2 incubator, and then a transcellular transport study was conducted. Then, a […] was calculated. The efflux ratio was calculated as the ratio of the mean values of Papp calculated from three measurements.

P-gp and BCRP = experiment: as above; assay type: in vitro ADME; details: human, Caco-2
Procedure: as §1, §2

[3] = Clinical studies #7 and #8: edaravone oral dose vs AUC (4-parameter logistic model) compared with 60-mg intravenous administration; assay type: in vivo; details: human, plasma; approved 60-mg edaravone intravenous administration formulation (60 mg/60 min)
Procedure: Specifically, clinical studies #7 and #8 described below were conducted in healthy adult male subjects for each subject group. In clinical studies #7 and #8, one dose each of edaravone oral formulations (edaravone suspensions) of formulas #7 and #8 shown in Table 11 below were used respectively and administered orally once during the study period.
Any of the edaravone oral formulations (formula #7) with an edaravone content of 30 mg, 60 mg, 120 mg, 200 mg, or 300 mg was administered orally to subjects in fasted conditions after a lapse of 10 hours or longer from consumption of a meal. The edaravone oral formulations with each content were each administered orally to 6 subjects. Blood samples were each collected before the administration, and 15 minutes, 30 minutes, 1 hour, 1.5 hours, 2 hours, 4 hours, 6 hours, 8 hours, 12 hours, 24 hours, 36 hours, and 48 hours after the administration, the concentrations of unchanged edaravone were measured, and the AUCs were calculated.
The edaravone oral formulations (formula #8) with an edaravone content of 100 mg was administered orally to 9 subjects in fasted conditions after a lapse of 10 hours or longer from consumption of a meal. […]

[4] = Clinical study #11: PK of edaravone oral formulation (formula #3) via nasopharyngeal gastric tube vs oral in healthy adults; assay type: in vivo, human; details: for AUC(0-inf) / Cmax / AUC / half-life / Tmax: human, plasma; for AUC(0-inf) / Cmax: 105 mg; for Tmax: read-out: tmax (median)
Procedure: Pharmacokinetics of edaravone in administration of the edaravone oral formulation via a PEG tube was evaluated in 36 healthy adults. Specifically, performing gastrostomy in healthy adults is difficult, thus a nasopharyngeal gastric tube (NG tube), which allows the administration into the stomach via a tube in the same manner, was used as a model of administration via a percutaneous endoscopic gastrostomy tube (PEG tube), and a clinical study #11 described below was conducted.
The edaravone oral formulation (#3) was administered via a nasopharyngeal gastric tube (NG tube) to the subject group in fasted conditions after a lapse of 10 hours or longer from consumption of a meal. In the administration via an NG tube, first, 100 mL of lukewarm water was injected through an NG tube 1 hour before the administration of the edaravone oral formulation, and 10 mL of lukewarm water was injected through an NG tube immediately before the administration. Then, the edaravone oral formulation was administered to the NG tube, and further 30 mL of water was injected through the NG tube to wash in the edaravone oral formulation. Blood samples were each collected before the administration, and 5 minutes, 15 minutes, 30 minutes, 45 minutes, 1 hour, 1.5 hours, 2 hours, 4 hours, 6 hours, 8 hours, 10 hours, 12 hours, 24 hours, 36 hours, and 48 hours after the administration, and the concentrations of unchanged edaravone in plasma were measured. As a reference example, the same edaravone oral formulation was administered orally to the same subjects, blood samples were collected, and the concentrations of unchanged edaravone in plasma were measured in the same manner. For the oral administration, the edaravone oral formulation was administered orally after a lapse of 10 hours or longer from the previous meal consumption. None of the subjects consumed a next meal until the blood sample collection 4 hours after the administration was completed. In addition, results of an analysis of variance conducted on the AUC and Cmax in consideration of the meal condition are shown in Table 14 below.

[5] = Nasopharyngeal gastric tube / Oral, least squares mean ratio
[6] = other: nasopharyngeal gastric tube (NG tube), formula #3 (105 mg), Nasopharyngeal gastric tube, fasted (N = 36), mean
[7] = formula #3 (105 mg), Oral, fasted (N = 36), mean

- adsorption of edaravone on the catheters [1]: No adsorption
- substrate for P-gp and BCRP [2]: not a substrate for P-gp and BCRP
- efflux ratio at 10 μmol/L (P-gp and BCRP; 10 μmol/L, no inhibitor): 0.9
- efflux ratio (P-gp and BCRP; in presence or absence of inhibitors): ≤ 2
- AUC [3]: 1740 ng·h/mL
- AUC0-∞ Ratio [4, 5]: 0.981
- Cmax Ratio [4, 5]: 1.052
- AUC(0-inf) ([4]; other: nasopharyngeal gastric tube (NG tube), Nasopharyngeal gastric tube, analysis of variance, read-out: AUC0-∞ Least-square mean): 2500 ng·h/mL
- Cmax ([4]; other: nasopharyngeal gastric tube (NG tube), Nasopharyngeal gastric tube, analysis of variance, read-out: Cmax Least-square mean): 2430 ng/mL
- AUC(0-inf) ([4]; other: nasopharyngeal gastric tube (NG tube), formula #3 (105 mg), Nasopharyngeal gastric tube, fasted (N = 36), mean, read-out: AUC0-∞): 2620 ng·h/mL
- Cmax ([4]; other: nasopharyngeal gastric tube (NG tube), formula #3 (105 mg), Nasopharyngeal gastric tube, fasted (N = 36), mean, read-out: Cmax): 2780 ng/mL
- AUC [4, 6]: 2590 ng·h/mL
- half-life [4, 6]: 13.5 h
- Tmax ([4]; other: nasopharyngeal gastric tube (NG tube), formula #3 (105 mg), Nasopharyngeal gastric tube, fasted (N = 36)): 0.25 h
- AUC(0-inf) ([4]; po, Oral, analysis of variance, read-out: AUC0-∞ Least-square mean): 2550 ng·h/mL
- Cmax ([4]; po, Oral, analysis of variance, read-out: Cmax Least-square mean): 2310 ng/mL
- AUC(0-inf) ([4]; po, formula #3 (105 mg), Oral, fasted (N = 36), mean, read-out: AUC0-∞): 2660 ng·h/mL
- Cmax ([4]; po, formula #3 (105 mg), Oral, fasted (N = 36), mean, read-out: Cmax): 2470 ng/mL
- AUC [4, 7]: 2610 ng·h/mL
- half-life [4, 7]: 21.5 h
- Tmax ([4]; formula #3 (105 mg), Oral, fasted (N = 36)): 0.5 h
SMILES: CC1=NN(c2ccccc2)C(=O)C1 [Edaravone, 3-methyl-1-phenyl-2-pyrazolin-5-one]
